The record followed here is ChEMBL document CHEMBL1139246, “Pyridine-3-carboxamides as novel CB(2) agonists for analgesia” (Bioorg Med Chem Lett, 2009).

Several values for one entry are separate records, joined by “and”; a condition that tells them apart may be missing. Equal values may be shown once.

Test system in the first data set: not listed separately
As to the kind of experiment: Oral bioavailability in rat at 3 mg/kg. It is filed as ADME, organism-based. The settings on record: in vivo.
Take `O=C(NCC1CCOCC1)c1cnc(Nc2ccc(Cl)cc2Cl)cc1C1CC1`: the bioavailability worked out at 39%.

The test system of the next data set is Rattus norvegicus. Briefly: Dose normalized AUC (0 to t) in rat at 30 mg/kg, po after 6 hrs. It is filed as ADME, organism-based. Details: time < 6 hr, dose 30 mg/kg, route oral. To be noted: in vivo.
Take `O=C(NCC1CCOCC1)c1cnc(Nc2ccc(Cl)cc2Cl)cc1C1CC1`: the AUC worked out at 15 kg·min/L.
Same read-out and setting: to `CC(C)(C)c1cc(Nc2ccc(Cl)cc2Cl)ncc1C(=O)NCC1CCOCC1` belongs 16 kg·min/L; to `O=C(NCC1CCOCC1)c1cnc(Nc2cccc(OC(F)(F)F)c2)cc1C1CC1`, 3 kg·min/L; to `O=C(NCC1CCOCC1)c1cnc(Nc2cccc(Br)c2)cc1C1CC1`, 5 kg·min/L.

Test system in another data set: not listed separately
Briefly: Dissociation constant, pKa of the compound. The class given is physicochemical.
Details: not given
The compound `CC(C)c1cc(Nc2cccc(Cl)c2)ncc1C(=O)NCC(C)(C)C` gave a pKa of 6.02.
The compound `COc1ccc(Cl)cc1Nc1cc(C(F)(F)F)c(C(=O)NCC2CCC2)cn1` displayed a pKa of 2.63.
Same read-out and setting: to `CC(C)c1cc(Nc2cccc(Cl)c2)ncc1C(=O)NCc1ccc(F)cc1` belongs 6.02; to `COc1ccc(Cl)cc1Nc1cc(C(F)(F)F)c(C(=O)NCC2CCOCC2)cn1`, 2.63.
Still for that read-out and setting: as for `CC(C)CNC(=O)c1cnc(Nc2cccc(Cl)c2)cc1C(C)C`, the figure is 6.02; as for `O=C(NCC1CCOCC1)c1cnc(Nc2cccc(F)c2)cc1C(F)(F)F`, 2.63.
The same measure, in the same setting: to `CC(C)c1cc(Nc2cccc(C#N)c2)ncc1C(=O)NCC1CCOCC1` belongs 6.02.
With `O=C(NCC1CCOCC1)c1cnc(Nc2ccc(Cl)cc2Cl)cc1C(F)(F)F`, the pKa was determined as 2.63.
The compound `COc1cccc(Nc2cc(C(C)C)c(C(=O)NCC3CCOCC3)cn2)c1` displayed a pKa of 6.02.
The same measure, in the same setting: as for `CCC(CC)CNC(=O)c1cnc(Nc2cccc(Cl)c2)cc1C(C)C`, the figure is 6.02; as for `NC(=O)c1ccc(CNC(=O)c2cnc(Nc3cccc(Cl)c3)cc2C(F)(F)F)cc1`, 2.63.
The same measure, in the same setting: to `CC(C)c1cc(Nc2cccc(C(F)(F)F)c2F)ncc1C(=O)NCC1CCOCC1` belongs 6.02.
Still for that read-out and setting: as for `O=C(NCC1CCOCC1)c1cnc(Nc2cccc(Cl)c2)cc1C(F)(F)F`, the figure is 2.63.
For the compound `CC(C)c1cc(Nc2cccc(Cl)c2)ncc1C(=O)NCC1CCOCC1`, the pKa is 6.02.
Take `O=C(NCc1ccc(F)cc1)c1cnc(Nc2cccc(Br)c2)cc1C(F)(F)F`: the pKa was 2.63.
On the same count and under the same terms, as for `O=C(NCC1CCCC1)c1cnc(Nc2ccc(Cl)cc2Cl)cc1C(F)(F)F`, the figure is 2.63; as for `Cc1cccc(Nc2cc(C(C)C)c(C(=O)NCC3CCOCC3)cn2)c1`, 6.02.
Still for that read-out and setting: to `Cc1cc(Cl)ccc1Nc1cc(C(F)(F)F)c(C(=O)NCC2CCOCC2)cn1` belongs 2.63; to `O=C(NCC1CCCCC1)c1cnc(Nc2cccc(Cl)c2)cc1C(F)(F)F`, 2.63.
Still for that read-out and setting: as for `CC(C)c1cc(Nc2cccc(Br)c2)ncc1C(=O)NCC1CCOCC1`, the figure is 6.02; as for `CC(C)c1cc(Nc2ccc(C#N)c(Cl)c2)ncc1C(=O)NCC1CCOCC1`, 6.02.
With `CC(C)c1cc(Nc2cccc(Cl)c2)ncc1C(=O)NC1CCOCC1`, the pKa amounted to 6.02.
The same measure, in the same setting: as for `Cc1cccc(Nc2cc(C(C)C)c(C(=O)NCC3CCC3)cn2)c1`, the figure is 6.02; as for `CC(C)c1cc(Nc2cccc(Cl)c2)ncc1C(=O)NCC1CCCC1`, 6.02.
On the same count and under the same terms, to `CC(C)c1cc(Nc2ccc(Cl)cc2Cl)ncc1C(=O)NCC1CCOCC1` belongs 6.02.

Test system in a further data set: not listed separately
As to the kind of experiment: Clearance in rat at 1 mg/kg, iv. It is filed as ADME, organism-based. Also on record: dose 1 mg/kg, route intravenous. The settings on record: in vivo.
As for `O=C(NCC1CCOCC1)c1cnc(Nc2ccc(Cl)cc2Cl)cc1C1CC1`, the clearance is 14 mL/min/kg and 14 mL/min.

Test system in another data set: not listed separately
As to the kind of experiment: Volume of distribution in rat at 1 mg/kg, iv. It is filed as ADME, organism-based. Details: dose 1 mg/kg, route intravenous. The settings on record: in vivo.
`O=C(NCC1CCOCC1)c1cnc(Nc2ccc(Cl)cc2Cl)cc1C1CC1` gave a distribution volume (Vd) of 2.4 L/kg.

Test system in another data set: not listed separately
Briefly: Half life in rat at 1 mg/kg, iv. The class given is ADME, organism-based. Details: dose 1 mg/kg, route intravenous. The settings on record: in vivo.
In turn, `O=C(NCC1CCOCC1)c1cnc(Nc2ccc(Cl)cc2Cl)cc1C1CC1` had a half-life of 3.1 h.

The bioavailability is dose-corrected exposure relative to a reference, in per cent. Read a low bioavailability as little systemic uptake. One may read the pKa as the negative logarithm of the acid dissociation constant. A high value points to a weaker acid or stronger base. Broadly, the clearance is the volume of plasma or blood freed of the substance per unit of time. Broadly, the Vd is a proportionality between amount in the body and measured concentration, not a real space. Low readings indicate little distribution into tissue, high ones wide distribution into tissue. In general, half-life refers to the time needed for the level to fall by half in the phase considered. Higher therefore signals slow decline.
